# Source: US6613507B1 (priority 2000, dated 2003)
# Experiments:
# [1] = assay type: physicochemical; settings: pH 7.4
# hepatitis C = settings: human, in vivo; cited from earlier work
# [2] = dog, in vivo; cited from earlier work
Compound,amino group protonated at physiological pH [1],biochemical and virological markers (hepatitis C),increase in blood pressure [2] [%]
"NC12CC3CC(CC(C3)C1)C2 [amantadine, 1-adamantanamine]",over 90%,improved,
CNC[C@H](O)c1cccc(O)c1 [phenylephrine],,,20
